In US9688707B2, “Bicyclic morpholino compounds and oligomeric compounds prepared therefrom” (Ionis Pharmaceuticals, Inc., priority 2014, dated 2017):

System: complementary RNA with the sequence 5′-AGCAAAAAACGC-3′ (SEQ ID NO: 6)
Test: Thermal stability (Tm) assay
Format: binding
Conditions: for ΔTm: calculated relative to a DNA standard, same duplex and buffer as Tm; for Tm: duplex with complementary RNA strand, buffer 100 mM NaCl, 10 mM phosphate, 0.1 mM EDTA (pH 7), heating 0.5° C./min from 15° C. to 85° C.
Description: A series of modified morpholino oligomeric compounds were evaluated in a thermal stability (Tm) assay. A Cary 100 Bio spectrophotometer with the Cary Win UV Thermal program was used to measure absorbance vs. temperature. For the Tm experiments, oligomeric compounds were prepared at a concentration of 8 μM in a buffer of 100 mM NaCl, 10 mM phosphate and 0.1 mM EDTA (pH 7). The concentration of the oligonucleotides was determined at 85° C. The concentration of each oligomeric compound was […] after mixing of equal volumes of test oligomeric compound and complimentary RNA strand. Oligomeric compounds were hybridized with the complimentary RNA strand by heating the duplex to 90° C. for 5 minutes followed by cooling to room temperature. Using the spectrophotometer, Tm measurements were taken by heating the duplex solution at a rate of 0.5° C./min in cuvette starting @15° C. and heating to 85° C. Tm values were determined using Vant Hoff calculations (A260 vs temperature curve) using non self-complementary sequences where the minimum absorbance which relates to the duplex and the maximum absorbance which relates to the non-duplex single strand are manually integrated into the program. The oligomeric compounds were hybridized to complementary RNA with the sequence 5′-AGCAAAAAACGC-3′ (SEQ ID NO: 6). ΔTm's are calculated relative to a DNA standard.

Which ΔTm does the source give for “05/592594: GCGTTmSTTmSTTmSGCT, diamidate linkages, morpholino, 3′-cap NTr (trityl) (GCGTT_{mS}TT_{mS}TT_{mS}GCT; morpholino oligomer, diamidate linkages, modified morpholino nucleosides at marked places, 3'-trityl cap, as printed in the source, key not given here)” here?
The ΔTm was 5.1 °C.

What about the Tm of the same substance?
The Tm was 50.7 °C.

With “05/592592: GCGTTmRTTmRTTmRGCT, diamidate linkages, morpholino, 3′-cap NTr (trityl) (GCGTT_{mR}TT_{mR}TT_{mR}GCT; modified morpholino nucleosides, diamidate linkages, 3'-trityl cap, as printed in the source, key not given here)” as the substance, how does the ΔTm read?
The ΔTm was −0.8.

What about the Tm of the same substance?
Its Tm is 44.8 °C.

For “05/585595: GCGTTmRTTmRTTmRGCT, diamidate linkages, morpholino, 3′-cap NH (GCGTT_{mR}TT_{mR}TT_{mR}GCT; morpholino oligomer, diamidate linkages, modified morpholino nucleosides at marked places, 3'-NH cap, as printed in the source, key not given here)”, which ΔTm is on record?
Its ΔTm is 5.3 °C.

And the Tm?
Its Tm is 50.9 °C.

What does the source list for “05/592979: GCGTTqTTqTTqGCT, q = bicyclic morpholino, diamidate linkages, 3′-cap NH (GCGTT_{q}TT_{q}TT_{q}GCT; morpholino oligomer, diamidate linkages, bicyclic morpholino at marked places, 3'-NH cap, as printed in the source, key not given here)”?
ΔTm: 3 °C; Tm: 48.6 °C

What does the source list for “05/592978: GCGTTqTTqTTqGCT, q = bicyclic morpholino, diamidate linkages, 3′-cap NTr (trityl) (GCGTT_{q}TT_{q}TT_{q}GCT; bicyclic morpholino, diamidate linkages, 3'-trityl cap, as printed in the source, key not given here)”?
ΔTm: −2.2; Tm: 43.4 °C

For “05/592595: GCGTTmSTTmSTTmSGCT, diamidate linkages, morpholino, 3′-cap NH (GCGTT_{mS}TT_{mS}TT_{mS}GCT; modified morpholino nucleosides, diamidate linkages, 3'-NH cap, as printed in the source, key not given here)”, which ΔTm is on record?
Its ΔTm is 10 °C.

And the Tm?
The Tm was 55.6 °C.

For “05/standard: DNA standard GCGTTTTTTGCT, PO linkages, unmodified DNA, 3′-cap OH (unmodified DNA) [reference compound]”, which Tm is on record?
The Tm was 45.6 °C.
